Data on seven compounds can be found in publication PMC12301034, “Design and Synthesis of Boronic Chalcones with Dual Anticancer and Anti-Inflammatory Activity” (Molecules, 2025).

The structures appear in SMILES notation.

System in one series: not given
Test: not given
Conditions: reference compounds for calibration curve; cited from earlier work.
Consider `Nc1ccccc1` [aniline], for which the “log P of reference compounds” value is on record as 0.9.

The subject of another series is SCC-25 cells. Briefly: MTT cytotoxicity assay on SCC-25 cells. The format is cell-based, human. The settings on record: Homo sapiens, SCC-25; MTT, 24 h incubation, mean SEM of three experiments. An excerpt:
(§1) The SCC-25 (ATCC® CRL-1628™), Detroit-562 (ATCC® CCL-138™), and THP-1 (ATCC® TIB-202™) cells were purchased from Rio de Janeiro Cell Bank (Duque de Caxias, Brazil), and NOK-si was kindly provided by Prof. Carlos Rossa from the School of Dentistry—UNESP. All the cells were cultivated according to standard conditions. Human colorectal adenocarcinoma HCT116 cell lines (ATCC® CCL-247™) expressing p53 and its p53-null isogenic derivative (HCT116 p53^−/−) were provided by B. Vogelstein (The Johns Hopkins Kimmel Cancer Center, Baltimore, MD, USA).
(§2) Cells (NOK-si, SCC-25, and Detroit-562) were grown in a DMEM medium (Dulbecco’s Modified Eagle Medium), supplemented according to the needs of each lineage, as recommended by its cell banks, with 2 mM L-glutamine, 10% or 20% fetal bovine serum (FBS), 1% antibiotic–antimycotic solution (5 mg/mL penicillin, 5 mg/mL streptomycin, and 10 mg/mL neomycin), 4.5 g/L of glucose, and 3.7 g/L of sodium bicarbonate (NaHCO3). All cell lines were cultured in flasks at 37 °C in 5% carbon dioxide (CO2) and 95% of relative humidity. The assays were conducted between the third- and the seventh-cell passage, with sub-cultures every 3–4 days to maintain exponential growth. The cell viability was checked using the trypan blue dye exclusion assay for all experiments, where over 95% of the cells were viable at the beginning of the tests. NOK-si, SCC-25, and Detroit-562 were initially thawed and cultured in 25 cm^2 cell culture flasks. Cell growth was monitored using a microscope, and the culture medium was changed periodically. Upon reaching confluency, cell dissociation was achieved by adding 5 mL of trypsin (Sigma-Aldrich, St Louis, MO, USA) and incubating the bottles in a CO2 incubator for 10 min. Subsequently, the cells were transferred to 15 mL Falcon tubes and centrifuged at 2000 rpm for 10 min. Cell counting was performed using a Countess II FL automated cell counter (ThermoFischer, Waltham, MA, USA). The cells were seeded at a density of 30,000 cells per well in 96-well plates. The plates were then incubated at 37 °C in 5% CO2 for 24 h. Following this, test compounds were incubated for another 24 h at 10 different concentrations: 50, 25, 12.5, 6.25, 3.12, 1.56, 0.78, 0.39, 0.19, and 0.097 µg/mL. After the specified time, MTT reagent (3 mg/mL) (Sigma-Aldrich, St Louis, MO, USA) dissolved in phenol-free RPMI 1640 was added and incubated for 4 h. The formed MTT crystals were solubilized using 2-propanol P.A. (Sigma-Aldrich, St Louis, MO, USA) with agitation. Absorbance was read at 562 nm using an EZ Read 400 microplate reader (Biochrom, Cambridge, UK) and ADAP 2.0 Biochrom software (version 2.0). IC50 values and graphs were calculated using Excel and Prism software (version 10.4.1). The MTT assay results were evaluated for normality using the Shapiro–Wilk test, followed by one-way ANOVA with Tukey’s post hoc test at a significance level of 5%.
Broadly, the IC50 is the concentration needed to halve the response being measured. A lower IC50 goes with greater potency. The compound `Nc1cccc(C(=O)/C=C/c2cccc(B(O)O)c2)c1` [Compound 3, (E)-(3-(3-(3-aminophenyl)-3-oxoprop-1-en-1-yl)phenyl)boronic acid] registered an IC50 of 45.2 ± 13.7 µM.
Compound `O=c1[nH]cc(F)c(=O)[nH]1` [Compound 5-FU, 5-fluorouracil, reference compound] displayed a concentration for half-maximal inhibition (IC50) of 1800 µM.
In turn, `COc1ccc(C(=O)/C=C/c2cccc(B(O)O)c2)cc1OC` [Compound 6, (E)-(3-(3-(3,4-dimethoxyphenyl)-3-oxoprop-1-en-1-yl)phenyl)boronic acid] gave an IC50 of 27.2 ± 3.84 µM.
With `Nc1cccc(C(=O)/C=C/c2ccc(B(O)O)cc2)c1` [Compound 9, (E)-(4-(3-(3-aminophenyl)-3-oxoprop-1-en-1-yl)phenyl)boronic acid], the 50% inhibitory concentration (IC50) turned out to be 108 ± 22.5 µM.
Turning to `O=C(/C=C/c1ccc(B(O)O)cc1)c1cccc(O)c1` [Compound 10, (E)-(4-(3-(3-hydroxyphenyl)-3-oxoprop-1-en-1-yl)phenyl)boronic acid], the midpoint of inhibition, the IC50, lay at 43.8 ± 4.43 µM.
Still for that read-out and setting: the same measure for `COc1ccc(C(=O)/C=C/c2ccc(B(O)O)cc2)cc1OC` [Compound 12, (E)-(4-(3-(3,4-dimethoxyphenyl)-3-oxoprop-1-en-1-yl)phenyl)boronic acid]: 38.4 ± 1.63 µM.

Still in this series, the particulars now being: selectivity index.
For the compound `O=c1[nH]cc(F)c(=O)[nH]1` [Compound 5-FU, 5-fluorouracil, reference compound], the “SI = IC50 NOK-si/IC50 SCC-25” value is reported as “lacked selectivity”.
As for `COc1ccc(C(=O)/C=C/c2cccc(B(O)O)c2)cc1OC` [Compound 6, (E)-(3-(3-(3,4-dimethoxyphenyl)-3-oxoprop-1-en-1-yl)phenyl)boronic acid], the “SI = IC50 NOK-si/IC50 SCC-25” value stood at 0.77.
Still for that read-out and setting: with `Nc1cccc(C(=O)/C=C/c2ccc(B(O)O)cc2)c1` [Compound 9, (E)-(4-(3-(3-aminophenyl)-3-oxoprop-1-en-1-yl)phenyl)boronic acid] the figure was 0.69; with `O=C(/C=C/c1ccc(B(O)O)cc1)c1cccc(O)c1` [Compound 10, (E)-(4-(3-(3-hydroxyphenyl)-3-oxoprop-1-en-1-yl)phenyl)boronic acid], 0.59.
For the compound `COc1ccc(C(=O)/C=C/c2ccc(B(O)O)cc2)cc1OC` [Compound 12, (E)-(4-(3-(3,4-dimethoxyphenyl)-3-oxoprop-1-en-1-yl)phenyl)boronic acid], the “SI = IC50 NOK-si/IC50 SCC-25” value is 0.77.

System in the next series: not listed separately
Briefly: Partition coefficient (Log P), OECD 117 HPLC method.
Conditions: not given
In general, chromatographic logP refers to a lipophilicity value derived from retention on a column. A high value points to higher lipophilicity. In turn, `Nc1cccc(C(=O)/C=C/c2cccc(B(O)O)c2)c1` [Compound 3, (E)-(3-(3-(3-aminophenyl)-3-oxoprop-1-en-1-yl)phenyl)boronic acid] returned a chromatographic logP of 1.49.
Still for that read-out and setting: with `COc1ccc(C(=O)/C=C/c2cccc(B(O)O)c2)cc1OC` [Compound 6, (E)-(3-(3-(3,4-dimethoxyphenyl)-3-oxoprop-1-en-1-yl)phenyl)boronic acid] the figure was 2.3; with `Nc1cccc(C(=O)/C=C/c2ccc(B(O)O)cc2)c1` [Compound 9, (E)-(4-(3-(3-aminophenyl)-3-oxoprop-1-en-1-yl)phenyl)boronic acid], 1.18.
Same read-out and setting: with `O=C(/C=C/c1ccc(B(O)O)cc1)c1cccc(O)c1` [Compound 10, (E)-(4-(3-(3-hydroxyphenyl)-3-oxoprop-1-en-1-yl)phenyl)boronic acid] the figure was 1.64; with `COc1ccc(C(=O)/C=C/c2ccc(B(O)O)cc2)cc1OC` [Compound 12, (E)-(4-(3-(3,4-dimethoxyphenyl)-3-oxoprop-1-en-1-yl)phenyl)boronic acid], 2.16.

The test system of the next series is NOK-si cells. Briefly: MTT cytotoxicity assay on NOK-si normal oral keratinocytes. The format is cell-based. Conditions: Keratinocyte, 24 h incubation, read-out: NOK-si IC50.
Description: as §1, §2
(Formazan colour is commonly taken as a measure of viable cells.)
Regarding `Nc1cccc(C(=O)/C=C/c2cccc(B(O)O)c2)c1` [Compound 3, (E)-(3-(3-(3-aminophenyl)-3-oxoprop-1-en-1-yl)phenyl)boronic acid], the CC50 is 36.2 ± 10.7 µM.
Same read-out and setting: the same measure for `O=c1[nH]cc(F)c(=O)[nH]1` [Compound 5-FU, 5-fluorouracil, reference compound]: 1800 ± 27.7 µM.
Same read-out and setting: the same measure for `COc1ccc(C(=O)/C=C/c2cccc(B(O)O)c2)cc1OC` [Compound 6, (E)-(3-(3-(3,4-dimethoxyphenyl)-3-oxoprop-1-en-1-yl)phenyl)boronic acid]: 20.8 ± 2.17 µM; for `Nc1cccc(C(=O)/C=C/c2ccc(B(O)O)cc2)c1` [Compound 9, (E)-(4-(3-(3-aminophenyl)-3-oxoprop-1-en-1-yl)phenyl)boronic acid]: 74.6 ± 15 µM.
On the same count and under the same terms, with `O=C(/C=C/c1ccc(B(O)O)cc1)c1cccc(O)c1` [Compound 10, (E)-(4-(3-(3-hydroxyphenyl)-3-oxoprop-1-en-1-yl)phenyl)boronic acid] the figure was 25.7 ± 11.6 µM; with `COc1ccc(C(=O)/C=C/c2ccc(B(O)O)cc2)cc1OC` [Compound 12, (E)-(4-(3-(3,4-dimethoxyphenyl)-3-oxoprop-1-en-1-yl)phenyl)boronic acid], 29.5 ± 6.08 µM.
